# From patent US20230346889A9, “TREATMENT OF ACUTE HEART FAILURE” (AnaCardio R&D AB, priority 2019, published 2023)
# “Also recorded” adds a separate entry of the source.
# Test system: isolated cardiomyocytes from SHAM and HF mice
# Assay: Cytosolic Ca2+ transients and cell shortening in isolated cardiomyocytes
# Assay type: cell-based, mouse
# Details: for cardiomyocyte fractional shortening (FS): 15 min ghrelin exposure, 100 nM, sham and post-MI HF mice; for cardiomyocyte Ca2+ transients (amplitude): SHAM and HF mice, vs placebo
# Excerpt: Twelve-week old C57BL6 mice were anesthetized with gas mixture of oxygen and isoflurane (2-3%). Myocardial infarction (MI) was induced in mice by permanent ligation of the left coronary artery, as previously described (Perrino et al., 2013). Briefly, mice underwent thoracotomy and subsequent left coronary ligation; ˜80% survived during the follow-up period (4-6 weeks). SHAM-operated animals underwent the same procedure without coronary artery ligation (SHAM). At study termination, after sedation, mice were euthanized through cervical dislocation.
# After euthanasia, single cardiomyocytes were isolated from the left and right ventricles (mouse hearts are dominated by left ventricles) and atria were excluded, following the protocols developed by the Alliance for Cellular Signalling (AfCS Procedure Protocol ID PP00000 125) as previously described (Pironti et al., 2016).
# Mouse cardiomyocytes were incubated with a cell permeable form of fluorescent indicators Fluo-3 AM followed by washing for >5 min as previously described (Andersson et al., 2011). Cardiomyocytes were plated on laminin coated glass bottom dishes. The dishes were placed in a custom built perfusion/stimulation chamber and continuously perfused with O2/CO2 (95/5%) bubbled Tyrode solution with the following composition (in mM): NaCl 121, KCl 5.0, CaCl2 1.8, MgCl2 0.5, NaH2PO4 0.4, NaHCO3 24, EDTA 0.1, glucose 5.5. The cardiomyocytes were stimulated to contract using an electrical field between two platinum electrodes attached to the perfusion/stimulation chamber. […] Fluorescence was measured using a confocal microscope Bio-Rad MRC 1024 unit attached to a Nikon Diaphot inverted microscope (40-60×oil immersion lenses). Confocal images were analyzed off line using ImageJ (National Institutes of Health; available at http://rsb.info.nih.gov/ij). Line scan confocal images were obtained from paced cardiomyocytes with the line scan running along the long axis of the cell. Changes in the emitted fluorescence, representing changes in free cytoplasmic Ca^2+, were quantified. The amplitude of Ca^2+ transients was measured as the change in the fluo-3 fluorescence signal (F) divided by the fluorescence immediately before a stimulation pulse given under control conditions (FO). Ca^2+ transient decay time constant (Tau) was quantified by fitting the decay to an exponential decay function in the GraphPad Prism software (La Jolla, Ca, USA). Fractional cell shortening was calculated from the line scan images as the fractional change in the cell length at rest and during maximal contraction.
# The myocytes were superfused with physiological buffer (Tyrode solution) or for the pharmacological experiments Tyrode+Ghrelin (100 nM) or D-Lys 3 (D-Lys 3 GHS-R1a antagonist 3 μM). All cells were perfused for 15 min with respective solution before measurements, except in some experiments where D-Lys 3 (3 μM) was introduced in perfusion system 10 minutes before adding Ghrelin. All experiments were performed at room temperature (˜24° C.).
# The myocytes were superfused with physiological buffer (Tyrode solution) with or without Ghrelin (Bachem, Bubendorf, Switzerland) (100 nM). All cardiomyocytes were superfused for 15 min with respective solution before measurements. An antagonist against the ghrelin receptor GHS-r1a (D-Lys 3; 3 μM), was used in some experiments. In those experiments, D-Lys 3 was introduced in superfusion system 10 minutes before adding Ghrelin.
structure (smiles),measurement,setting,value
CCCCCCCC(=O)OC[C@H](NC(=O)[C@H](CO)NC(=O)CN)C(=O)N[C@@H](Cc1ccccc1)C(=O)N[C@@H](CC(C)C)C(=O)N[C@@H](CO)C(=O)N1CCC[C@H]1C(=O)N[C@@H](CCC(=O)O)C(=O)N[C@@H](Cc1cnc[nH]1)C(=O)N[C@@H](CCC(N)=O)C(=O)N[C@@H](CCCNC(=N)N)C(=O)N[C@H](C(=O)N[C@@H](CCC(N)=O)C(=O)N[C@@H](CCC(N)=O)C(=O)N[C@@H](CCCNC(=N)N)C(=O)N[C@@H](CCCCN)C(=O)N[C@@H](CCC(=O)O)C(=O)N[C@@H](CO)C(=O)N[C@@H](CCCCN)C(=O)N[C@@H](CCCCN)C(=O)N1CCC[C@H]1C(=O)N1CCC[C@H]1C(=O)N[C@@H](C)C(=O)N[C@@H](CCCCN)C(=O)N[C@@H](CC(C)C)C(=O)N[C@@H](CCC(N)=O)C(=O)N1CCC[C@H]1C(=O)N[C@@H](CCCNC(=N)N)C(=O)O)C(C)C [Ghrelin],kinetics of Ca2+ transients (ROI and Tau),,did not affect
same,cardiomyocyte fractional shortening (FS),,increases contractility
same,cardiomyocyte fractional shortening (FS),listed as ghrelin,increased compared to placebo
same,cardiomyocyte Ca2+ transients (amplitude),,did not differ
same,cardiomyocyte Ca2+ transients (amplitude),listed as ghrelin,not different; also recorded: no difference
